Test results as given in patent US12324794B2, “Method to alleviate the symptoms of PMS” (priority 2016, dated 2025).

Tests used:
women with PMS / PMDD = assay: Case studies of women with PMS or PMDD symptoms (Examples 2-6); assay type: in vivo, human
Text: Below are some case studies and a human trial, both of which show significant improvement in symptoms. While acne can be measured by inspection, the other symptoms rely upon the internal feelings of the patient. To measure symptoms that deal with tender breasts, fatigue, difficulty concentrating, diminished impulse control, irritability, anxiety, tension, anger, depression, suicidal thoughts, feeling “out of control”, insomnia, cramping and rapid fluctuations in mood, one skilled in the art must rely on the interpretation of patient. This can be done through an interview with an expert, such as a medical doctor, or through validated survey forms that specifically address these symptoms. Examples of these forms that have been validated by independent clinical trial include: • Buss Perry Aggression Questionnaire (Anger) • Clinical Anger Scale (Anger) • Cohen-Perceived-Stress Scale (Anxiety) • Generalized-Anxiety-Scale (Anxiety) • Generalized Anxiety Disorder 7-item (GAD-7) scale (Anxiety) • Beck's Depression Inventory (Depression) • Center for Epidemiologic Studies Depression Scale (Depression) • Hospital Anxiety and Depression Scale (Anxiety and Depression) • Premenstrual Assessment Form (anger, depression, fatigue and anxiety) • Mood Calendar Tracking (anger, depression, fatigue and anxiety) A person experienced severe anger and depression one day a month, right before their period, every month. […] The cramping was not relieved by Midol or Aspirin. The person was despondent even after their symptoms of PMDD left because of guilt over their behavior during this time period. […] They reported that it was like a 1,000 pound weight being taken off their shoulders. The person in Example 3 continued to take oxaloacetate each month for the next three months and monitored their progress. They took one pill starting about 10 days before their period, and continued taking 1 pill daily until the first sign of PMS, when they increased the dosage to 2 capsules per day until the 2nd day of their period. […] They reported that “I am no longer a suicidal, psychotic crazy person every month. And I know it is the supplements because this will be the 3rd month with no PMDD and that is NOT a coincidence.” A person presented with severe PMDD ever since they were […]. They are now 26. Typically, the patient had to take-off from work 3 days out of each month, and self-seclude, because they could not be with people. […] The improvements with anhydrous enol-oxaloacetate have continued for over 2 years with this patient. A person presented with severe anxiety attacks and fatigue during the week before menstruation.

women with PMS [1] = assay: Randomized, double-blinded, placebo controlled cross-over trial for PMS emotional symptoms (Example 7); assay type: in vivo, human; conditions: 200 mg oxaloacetate per day, approx. 28 days, 26 women
Experimental: A randomized, double blinded placebo-controlled crossover trial was conducted using 200 mg oxaloacetate per day as the active ingredient, and rice flour as the placebo ingredient. An Institutional Review Board (IRB) has approved the clinical plan, and patients have signed the human consent forms. Patients were located from across the United States. Consent forms and survey questionnaires were filled out on-line. The patients and the lead investigator were unaware of which product, Active or Placebo, the patients were receiving. Inclusion Criteria for the trial: • Able to give informed consent and follow instructions per the protocol • Female with history of mood swings, anxiety or depressed mood associated with PMS • Ages 21 to 50 at the start of the study • Not pregnant Exclusion Criteria for the trial: • A formal diagnosis of Major Depression • Previously taken Oxaloacetate as a supplement • Participation in other drug studies or use of other investigational products within 30 days prior to baseline • If unwilling to discontinue use of other nutritional supplements taken for the purpose of PMS modulation during the study • Any unstable or clinically significant condition that would impair the subject's ability to comply with study follow up. • […] of Premenstrual Dysphoric Disorder (PMDD) (a severe form of PMS). After signing the human consent forms, the patient took four different surveys to assess their current emotional state during PMS. • The Beck Depression Inventory modified to examine the week prior to the person's period (21 questions) • The Cohen Perceived Stress form, modified to examine the week prior to the person's period (10 questions). • The Generalized Anxiety Disorder 7-Item Scale modified to examine the week prior to the person's period (7 questions). • The Buss Perry Aggression questionnaire modified to examine the week prior to the person's period (29 questions). The time to fill out the composite 4-survey questionnaire is less than 30 minutes. The questionnaires are filled out on-line and made available to investigator team. […] After a “baseline” 4-survey questionnaire was completed by the women, they would be randomly sent either the Active oxaloacetate compound (200 mg oxaloacetate) or the Placebo (200 mg rice flour). The women would take a daily dose of the compound received, starting with their menstrual period, and continuing daily until the following menstrual period. At that following menstrual period, the women would again complete the 4-survey questionnaire. […] This is a “cross-over” type design. The women take the new product staring on a menstrual period, and continue taking it daily until a following menstrual period. The then again complete the 4-survey questionnaire. In this trial, each woman completed a baseline survey, and a survey after approximately 28 days for oxaloacetate, and a survey after approximately 28 days for rice flour. 26 women completed the study. Half of the women took oxaloacetate first, and the other half took a placebo first. […] P values were calculated using a student's T test, using a two-tailed distribution with paring of the data to the individual.

women with PMS [2] = assay: Single-blinded, placebo controlled cross-over trial for PMS emotional symptoms (Example 8); assay type: in vivo, human; design: concentration or dose not given beside the values; conditions: placebo first, oxaloacetate second, 19 women
Text: The clinical trial of Example 7 was repeated with 19 women, except that the trial was single blinded. The placebo was sent to all women first, and the oxaloacetate active second. […] This should not have come as a complete surprise to us, as oxaloacetate exerts a beneficial effect on gene expression (movement towards the calorie restriction metabolic state) that can have positive effects for several weeks after discontinuation of the product. To better measure the oxaloacetate effect, therefore, oxaloacetate was given second in this trial. P values were calculated using a student's T test, using a two-tailed distribution with paring of the data to the individual.

women with PMS [3] = assay: Suicidal Ideation item of Beck's Depression Inventory, Clinical Trials 1 and 2 compiled (Example 9); assay type: in vivo, human; conditions: 31 women with baseline score above 0, both trials compiled
Text: In the clinical trials within Examples 7 and 8, the Beck's Depression Inventory was used. One portion of the Beck's Depression Inventory specifically deals with “Suicidal Ideation” (thoughts about committing suicide). The survey scores the relative severity of suicidal ideation via numerical scoring as follows: • Score Value • 0 I don't have any thoughts of killing myself. • 1 I have thoughts of killing myself, but I would not carry them out. • 2 I would like to kill myself. • 3 I would kill myself if I had the chance. The results of Clinical Trial 1 and 2 were compiled to examine the Suicidal Ideation of the women who participated in this clinical trial. Out of the 45 women in both trials, 31 women experienced a score above 0 in the baseline survey. No women in the completed study who scored 0 in the baseline study increased their suicidal ideation score. In order to examine suicidal ideation statistically, women with a 0 score on their baseline survey were removed from the analysis. P values were calculated using a student's T test, using a two-tailed distribution with paring of the data to the individual.

[4] = in vivo
Text: The dose ratio between toxic and therapeutic effects is the therapeutic index and it can be expressed as the ratio LD50/ED50.

[5] = Stability / decarboxylation; assay type: physicochemical
Text: The enol and keto form of oxaloacetic acid are tautomers, and in water form a chemical equilibrium. […] The keto-oxaloacetate decarboxylates quickly to pyruvate. As the keto-oxaloacetate form disappears due to decarboxylation, the enol and hydrated form convert to keto-oxaloacetate, and then also decarboxylate into carbon dioxide and pyruvate, until all the oxaloacetate is consumed. Note that neither of the byproducts of oxaloacetate decarboxylation, carbon dioxide and pyruvate, are effective in treating the symptoms of PMS and PMDD. If there are divalent cations in the fluid, which is very common, the decarboxylation of oxaloacetic acid can happen within a day. […] (See Cash, U.S. Pat. No. 9,050,306). […] Water catalyzes the equilibrium reaction between enol- and keto oxaloacetic acid. Note that only the keto form of oxaloacetic acid decarboxylates into pyruvate and carbon dioxide spontaneously, not the enol-form. There is an energy gap between the enol and keto form which is bridged when the compounds are exposed to water, however, this same energy gap prevents the conversion of the enol to keto form when the product is kept dry. Once there is a conversion to the keto form, decarboxylation can spontaneously occur at temperatures above the freezing point of water. […] Drying effectiveness can be increased by increasing the drying time, drying under vacuum, by using anhydrous washes of isopropyl alcohol or ethyl alcohol to absorb the remaining water (and then evaporating the alcohol), or by performing multiple washes with hexane or non-water soluble solvent to physically remove the water, typically after an alcohol wash. The non-water soluble solvent would then be evaporated off. […] Hexane is a residual solvent in many commercial food preparations including decaffeinated coffee, and is not toxic in small quantities. Alternatively, the final wash can be performed with liquefied propane, liquefied butane, ethyl acetate, ethane, carbon dioxide, or nitrous oxide to reduce the water content.

[6] = Forms of oxaloacetic acid in water; assay type: physicochemical; conditions: pH 6.9
Experimental: In some embodiments, the present invention provides methods for treating symptoms of PMS and methods for treating symptoms of PMS and PMDD comprising administration of compositions comprising oxaloacetate. Oxaloacetic acid, when dissolved in water, ionizes to oxaloacetate. The oxaloacetate can be in three forms depending on the pH of the solution. At low pH (<1.5) and low temperature (<4° C.) oxaloacetate hydrates. […] Outside of water solutions, the solid form of oxaloacetic acid is primarily in the enol form. All forms of oxaloacetic acid and the ion oxaloacetate are absorbed by the body. The hydrated form is mostly converted once it enters the higher pH of the body outside of the intestinal tract to the keto and enol form. […] Enol-oxaloacetate is converted to keto-oxaloacetate with the enzyme enol-keto tautomerase, a ubiquitous enzyme throughout the human body. The enol and keto form of oxaloacetic acid are tautomers, and in water form a chemical equilibrium. […] The keto-oxaloacetate decarboxylates quickly to pyruvate. As the keto-oxaloacetate form disappears due to decarboxylation, the enol and hydrated form convert to keto-oxaloacetate, and then also decarboxylate into carbon dioxide and pyruvate, until all the oxaloacetate is consumed. Note that neither of the byproducts of oxaloacetate decarboxylation, carbon dioxide and pyruvate, are effective in treating the symptoms of PMS and PMDD. If there are divalent cations in the fluid, which is very common, the decarboxylation of oxaloacetic acid can happen within a day.

## CC(=O)Oc1ccccc1C(=O)O [Aspirin, reference compound]
Women with PMS / PMDD; person with PMDD, history (Example 3)
  relief of extreme cramping (pain level 10): not relieved

## O=C(O)CC(=O)C(=O)O [Oxaloacetate]
Women with PMS [1]
  Beck's Depression Inventory, reduction from Placebo: 25.57%
  Beck's Depression Inventory, reduction from baseline: 50.88%
  Buss-Perry Aggression Scale, reduction from Placebo: 9.22%
  Buss-Perry Aggression Scale, reduction from baseline: 15.10%
  Cohen Perceived Stress, reduction from Placebo: 16.51%
  Cohen Perceived Stress, reduction from baseline: 34.35%
  Generalized Anxiety Disorder, reduction from Placebo: 28.08%
  Generalized Anxiety Disorder, reduction from baseline: 49.73%
Women with PMS [2]
  Beck's Depression Inventory, reduction from Placebo: 37.12%
  Beck's Depression Inventory, reduction from baseline: 54.42%
  Buss-Perry Aggression Scale, reduction from Placebo: 14.06%
  Buss-Perry Aggression Scale, reduction from baseline: 17.81%
  Cohen Perceived Stress, reduction from Placebo: 24.40%
  Cohen Perceived Stress, reduction from baseline: 36.67%
  Generalized Anxiety Disorder, reduction from Placebo: 38.02%
  Generalized Anxiety Disorder, reduction from baseline: 54.23%
Women with PMS [3]
  Suicidal Ideation, reduction from Baseline: 47.90%
[4]
  LD50: above 5 g/kg of body weight

## O=C(O)CC(=O)C(=O)O [anhydrous enol-oxaloacetate, anhydrous enol-oxaloacetic acid]
Women with PMS / PMDD; person, two 100 mg lozenges under the tongue (Example 6)
  fatigue during the week before menstruation: greatly reduced
Women with PMS / PMDD; person, two 100 mg lozenges under the tongue for 5 minutes (Example 6)
  time until panic attack subsided: less than 5 minutes
Women with PMS / PMDD; person, two capsules of 100 mg on that day (Example 2)
  severe premenstrual anger and depression: reduced in intensity to the point where they could manage the symptoms easily
[5]; room temperature, kept dry
  stability at room temperature: exceeding one year

## O=C(O)CC(=O)C(=O)O [oxaloacetic acid]
[6]
  share in the enol form: 11%
  share in the hydrated form: 5%
  share in the keto form: 84%
[5]; divalent cations in the fluid
  time to decarboxylation in fluid: within a day
[5]; very low pH, temperatures not exceeding 8° C.
  stability of the hydrated form: less than one week
